Tests used:
Mus musculus [1] = assay: Analgesic activity was evaluated in mice by hot plate assay and percent change in foot licking latency was determined at 32 mg/kg i.p. dose. p<0.05; assay type: functional; details: route intraperitoneal
Mus musculus [2] = assay: Inhibition of phenylquinone induced writhing in mice following 50 mg/kg p.o.; assay type: functional; details: route oral
Mus musculus [3] = assay: Mortality threshold doses was determined from orientative acute toxicity Irwin test (3 mice/dose) by peroral administration. Value in parentheses represent the percent mortality.; assay type: organism-based; details: in vivo, po
Rattus norvegicus [4] = assay: Antiinflammatory activity was evaluated by carrageenan induced rat paw edema (6 rats/ dose) at peroral dose of 50 mg/kg and percent of variation of edema volume was determined.; assay type: functional; details: route oral
Rattus norvegicus [5] = species: Rattus norvegicus; assay: Analgesic activity against acetic acid-induced writhing in the rat compared to that of aspirin.; assay type: functional
Rattus norvegicus [6] = species: Rattus norvegicus; assay: Antinociceptive potency against acetic acid -induced writhing in rat (8 rats/dose); assay type: functional
Rattus norvegicus [7] = assay: % inhibition of acetic acid-induced writhing in rat at 1.5 mg/kg peroral dose, 120 min postdose(5 rats per compound at each time).p<0.05; assay type: functional; details: 2 h, route oral
Rattus norvegicus [8] = assay: % inhibition of acetic acid-induced writhing in rat at 1.5 mg/kg peroral dose, 15 min postdose(5 rats per compound at each time). p<0.05; assay type: functional; details: 0.25 h, route oral
Rattus norvegicus [9] = assay: % inhibition of acetic acid-induced writhing in rat at 1.5 mg/kg peroral dose, 180 min postdose(5 rats per compound at each time).p<0.05; assay type: functional; details: 3 h, route oral
Rattus norvegicus [10] = assay: % inhibition of acetic acid-induced writhing in rat at 1.5 mg/kg peroral dose, 30 min postdose(5 rats per compound at each time).p<0.001; assay type: functional; details: 0.5 h, route oral
Rattus norvegicus [11] = assay: % inhibition of acetic acid-induced writhing in rat at 1.5 mg/kg peroral dose, 360 min postdose(5 rats per compound at each time); assay type: functional; details: 6 h, route oral
Rattus norvegicus [12] = assay: Antiinflammatory activity was evaluated by carrageenan induced rat paw edema (6 rats/ dose) at peroral dose of 50 mg/kg by inhibition of Prostaglandin E2 (PGE2).; assay type: functional; details: route oral
Rattus norvegicus [13] = assay: Antiinflammatory activity was evaluated by carrageenan induced rat paw edema (6 rats/ dose) at peroral dose of 50 mg/kg by inhibition of leukotriene B4 (LTB4) synthesis.; assay type: functional; details: route oral
Rattus norvegicus [14] = assay: Inhibition of acetic acid induced writhing in rat following 50 mg/kg p.o.; assay type: functional; details: route oral
Mus musculus [15] = species: Mus musculus; assay: Analgesic activity against phenylquinone induced writhing in mice compared to that of aspirin.; assay type: functional
Mus musculus [16] = species: Mus musculus; assay: Antinociceptive potency against phenylquinone (PBQ)-induced writhing in mice (8 mice/dose); assay type: functional
Rattus norvegicus [17] = assay: % inhibition of acetic acid-induced writhing in rat at 1.5 mg/kg peroral dose, 60 min postdose(5 rats per compound at each time).p<0.01; assay type: functional; details: 1 h, route oral
Mus musculus [18] = assay: Analgesic activity was evaluated in mice by hot plate assay and percent change in foot licking latency was determined at 8 mg/kg i.p. dose; assay type: functional; details: route intraperitoneal
Mus musculus [19] = assay: Mortality threshold doses was determined from orientative acute toxicity Irwin test (3 mice/dose) by peroral administration; assay type: organism-based; details: in vivo, po
Rattus norvegicus [20] = assay: Antiinflammatory activity was evaluated by carrageenan induced rat paw edema volume was determined.; assay type: functional
Rattus norvegicus [21] = assay: Antiinflammatory activity was evaluated by carrageenan induced rat paw edema (6 rats/ dose) at peroral dose of 100 mg/kg by inhibition of Prostaglandin E2 (PGE2).; assay type: functional; details: route oral
Rattus norvegicus [22] = assay: Antiinflammatory activity was evaluated by carrageenan induced rat paw edema (6 rats/ dose) at peroral dose of 100 mg/kg by inhibition of leukotriene B4 (LTB4) synthesis.; assay type: functional; details: route oral
Rattus norvegicus [23] = assay: Antiinflammatory activity was evaluated by carrageenan induced rat paw edema (6 rats/ dose) at peroral dose of 200 mg/kg and percent of variation of edema volume was determined.; assay type: functional; details: route oral
Rattus norvegicus [24] = assay: Antiinflammatory activity was evaluated by carrageenan induced rat paw edema (6 rats/ dose) at peroral dose of 200 mg/kg by inhibition of leukotriene B4 (LTB4) synthesis.; assay type: functional; details: route oral
Rattus norvegicus [25] = assay: Antiinflammatory activity was evaluated by carrageenan induced rat paw edema (6 rats/ dose) at peroral dose of 200 mg/kg by inhibition of Prostaglandin E2 (PGE2).; assay type: functional; details: route oral

SMILES | inhibition in vivo at 50 mg/kg (Mus musculus [2]) [%] | Activity ratio (Rattus norvegicus [5]) | ED50 (Rattus norvegicus [6]) [mg/kg] | inhibition in vivo at 50 mg/kg (Rattus norvegicus [14]) [%] | Activity ratio (Mus musculus [15]) | ED50 (Mus musculus [16]) [mg/kg] | other results
O=c1oc2ncccc2n1CCCN1CCN(c2ccc(F)cc2)CC1 | 85 | 2 | 0.5 | 79 | 1.6 | 5.6 | Change in foot-licking latency (Mus musculus [1]): 87%; Mortality threshold (Mus musculus [3]): 1024 mg/kg; Change in volume (Rattus norvegicus [4]): -11%; inhibition in vivo at 1.5 mg/kg (Rattus norvegicus [7]): 63%; inhibition in vivo at 1.5 mg/kg (Rattus norvegicus [8]): 47%; inhibition in vivo at 1.5 mg/kg (Rattus norvegicus [9]): 44%; inhibition in vivo at 1.5 mg/kg (Rattus norvegicus [10]): 65%; inhibition in vivo at 1.5 mg/kg (Rattus norvegicus [11]): 4%; inhibition in vivo at 50 mg/kg (Rattus norvegicus [12]): -5%; inhibition in vivo at 50 mg/kg (Rattus norvegicus [13]): 16%; inhibition in vivo at 1.5 mg/kg (Rattus norvegicus [17]): 50%
O=c1oc2ncccc2n1CCN1CCN(c2cccc(C(F)(F)F)c2)CC1 | 10 | 0.2 | – | 11 | 0.1 | – | –
O=c1oc2ncccc2n1CCN1CCC(c2ccccc2)CC1 | 9 | 0.7 | – | 50 | 0.1 | – | –
O=c1oc2ncccc2n1CCCCCCN1CCN(c2ccc(F)cc2)CC1 | 100 | 1.6 | 14.2 | 100 | 1.4 | 7.7 | –
O=c1oc2ncccc2n1CCCN1CCOCC1 | 48 | 0 | – | 0 | 0.9 | – | –
O=c1oc2ncccc2n1CCCCCN1CCN(c2ccc(F)cc2)CC1 | 100 | 1.6 | 30.4 | 100 | 1.4 | 11.4 | –
CC(CCn1c(=O)oc2ncccc21)N1CCN(c2ccc(F)cc2)CC1 (configuration not stated) | 63 | 0.7 | – | 51 | 1.3 | – | –
COc1ccccc1N1CCN(CCn2c(=O)oc3ncccc32)CC1 | 52 | 0.8 | – | 53 | 0.8 | – | –
COc1ccc(N2CCN(CCCn3c(=O)oc4ncccc43)CC2)cc1 | 35 | 0.2 | – | 14 | 0.7 | – | –
O=c1oc2ncccc2n1CCCN1CCN(c2cccc3ccccc23)CC1 | 44 | 0 | – | 0 | 0.9 | – | –
O=c1oc2ncccc2n1CCCCN1CCN(c2ccc(F)cc2)CC1 | 100 | 2.2 | 0.5 | 87 | 1.9 | 2.9 | Change in foot-licking latency (Mus musculus [18]): 113%; Mortality threshold (Mus musculus [19]): 512 mg/kg; Variation of edema volume (Rattus norvegicus [20]): -25%; inhibition in vivo at 50 mg/kg (Rattus norvegicus [12]): 2%; inhibition in vivo at 50 mg/kg (Rattus norvegicus [13]): 0%
O=c1oc2ncccc2n1CCCCN1CCC(c2ccccc2)CC1 | 0 | 1.5 | – | 59 | 0 | – | –
O=c1oc2ncccc2n1CCCN1CCN(c2ccccc2)CC1 | 98 | 1.3 | 3.3 | 92 | 1.4 | 12.7 | Change in foot-licking latency (Mus musculus [1]): 30%; Mortality threshold (Mus musculus [19]): > 1024 mg/kg; Change in volume (Rattus norvegicus [20]): -20%; inhibition in vivo at 100 mg/kg (Rattus norvegicus [21]): 5%; inhibition in vivo at 100 mg/kg (Rattus norvegicus [22]): 35%
O=c1oc2ncccc2n1CCN1CCN(c2ccccc2)CC1 | – | – | 13.6 | 74 | – | 25 | –
O=c1oc2ncccc2n1CCN1CCN(c2ccc(F)cc2)CC1 | 83 | 1.2 | 3.6 | 85 | 1.2 | 6.7 | –
O=C1CCN(c2ccccc2)N1 [PHENIDONE] | – | – | – | – | – | – | Change in volume (Rattus norvegicus [23]): -68%; inhibition in vivo at 200 mg/kg (Rattus norvegicus [24]): 100%; inhibition in vivo at 200 mg/kg (Rattus norvegicus [25]): 100%
O=c1oc2ncccc2n1CCCCN1CCN(c2ccccc2)CC1 | 91 | 1.4 | 13.6 | 96 | 1.3 | 27 | –
O=c1oc2ncccc2n1CCCN1CCN(Cc2ccccc2)CC1 | 14 | 0.2 | – | 12 | 0.3 | – | –
O=c1oc2ncccc2n1CCN1CCN(Cc2ccccc2)CC1 | 43 | 0.7 | – | 48 | 0.9 | – | –
O=C(CCn1c(=O)oc2ncccc21)N1CCN(c2ccc(F)cc2)CC1 | 25 | 0.5 | – | 43 | 0.4 | – | –
O=c1oc2ncccc2n1CCN1CCN(c2cccc3ccccc23)CC1 | 33 | 0.1 | – | 6 | 0.7 | – | –
CC(CN1CCN(c2ccc(F)cc2)CC1)Cn1c(=O)oc2ncccc21 (configuration not stated) | 99 | 1.6 | 20.5 | 100 | 1.4 | 24.6 | –
O=c1oc2ncccc2n1CCN1CCCC1 | 55 | 0.8 | – | 55 | 0.8 | – | –

— ChEMBL document CHEMBL1128726, “N-substituted oxazolo[5,4-b]pyridin-2(1H)-ones: a new class of non-opiate antinociceptive agents” (J Med Chem, 1995)
